Measurements from patent EP0457243A1, “Novel tricyclic compounds” (priority 1990, dated 1991).
Read-outs that look alike come from different tables or passages of the source.

Key:
[1] = Toxicity observation after i.p. administration; format: in vivo; settings: 10 mg/kg, over 90 minutes
[2] = tested on: C5BI/6J mice; assay: Mouse anxiolytic behavior model (two-compartment exploratory model); format: in vivo; parameters: % ACTIVITY DARK AREA W% / SHUTTLE ACTIVITY W% / LOCOMOTOR ACTIVITY (LIGHT AREA) W% / % ACTIVITY DARK AREA Mean ± SD: concentration or dose not given beside the values; settings: for % ACTIVITY DARK AREA Mean ± SD / LATENCY (SEC) Mean ± SD / LOCOMOTOR ACTIVITY (LIGHT AREA) Mean ± SD / SHUTTLE ACTIVITY Mean ± SD / TIME DARK AREA (SEC) Mean ± SD: i.p., 15 min post-treatment, monitored for 10 minutes; for % ACTIVITY DARK AREA W% / LATENCY (SEC) W% / LOCOMOTOR ACTIVITY (LIGHT AREA) W% / SHUTTLE ACTIVITY W% / TIME DARK AREA (SEC) W%: percentage change from control
Method: In brief, the method involves determining whether a compound reduces the natural anxiety of mice in brightly-lit areas.
The following describes an in vivo method for determining anxiolytic activity of compounds of Formula I.
Naive male C5BI/6J mice, 18-20 g, are kept in groups of 10 mice in quarters controlled for sound, temperature and humidity. Food and water are available ad libitum. The mice are kept on a 12 hour light and 12 hour dark cycle, with lights on at 6:00 a.m. and off at 6:00 p.m. All experiments begin at least 7 days after arrival on site.
Briefly, the chamber consists of a plexiglass box (44 x 21 x 21 cm), divided into two chambers by a black plexiglass partition. The partition dividing the two chambers contains a 13 x 5 cm opening through which the mouse can easily pass. The dark chamber has […]. A fluorescent tube light (40 watt) placed above the chambers provides the only illumination. The Digiscan Animal Activity Monitor System RXYZCM16 (Omni-Tech Electronics) records the exploratory activity of the mice within the test chambers.
Prior to commencement of the study the mice are given 60 min to acclimatize to the laboratory environment. After a mouse receives an intraperitoneal (i.p.) injection of either test compound or vehicle it is returned to its home cage for a 15 min post-treatment period. The mouse is then placed in the center of the light chamber and monitored for 10 minutes.
(§1) Anxiolysis is seen as a general increase in exploratory activity in the lighted area. An increase in exploratory activity is relected by increased latency (the time for the mouse to move to the dark chamber when first placed in the center of the lighted area), increase in shuttle activity, increased or unaltered locomotor activity (number of grid lines crossed) and decreased time spent in the dark compartment.

[3] = tested on: BKW mice; settings: 1 µ/g/kg i.p.
Method: Anxiolytic activity during withdrawal from drugs of abuse is determined by the mouse light/dark withdrawal anxiety test. This procedure utilizes the exploratory model described above to test for anxiolytic activity after administration and subsequent abrupt cessation of diazepam, alcohol, cocaine or nicotine treatments. A detailed description is set for in Example 13 of this application.
The following procedure describes a method to determine whether compounds of Formula I effect the anxiety that occurs after abruptly ceasing chronic treatment with drugs of abuse.
Naive male BKW mice (25-30 g) are caged in groups of ten in quarters controlled for sound, temperature and humidity. Food and water are available ad libitum. The mice are kept on a 12 hour light cycle and 12 hour dark cycle, with lights on at 6:00 a.m. and off at 6:00 p.m. All experiments begin at least 7 days after arrival on site.
as §1, with “Levels of anxiety are determined by the two-compartment exploratory model of Crawley and Goodwin (see Example 12). Anxiolysis” for “Anxiolysis”, “area),” for “area), increase in shuttle activity,”, “crossed), increased number of rears” for “crossed)”
Increased exploratory activity in the lighted area is induced by treating the mice for 14 days with alcohol (8.0 % w/v in drinking water), nicotine (0.1 mg/kg, i.p., twice daily), diazepam (10 mg/kg, i.p., twice daily), or cocaine (1.0 mg/kg, i.p., twice daily). Anxiolysis is assessed 1, 3, 7 and 14 days after commencement of the drug regime. The treatment is abruptly ceased and exploratory activity in the lighted area is determined 8, 24 and 48 hours thereafter. Vehicle or test compounds are administered during the withdrawl phase by intraperitoneal injection. Responses are represented as inhibition of the decrease in anxiolytic behavior after the alcohol, cocaine or nicotine treatment is ceased.

Row | Compound | unusual effects observed [1] | % ACTIVITY DARK AREA Mean ± SD [2] | LATENCY (SEC) Mean ± SD [2] | LOCOMOTOR ACTIVITY (LIGHT AREA) Mean ± SD [2] | SHUTTLE ACTIVITY Mean ± SD [2] | TIME DARK AREA (SEC) Mean ± SD [2] | % ACTIVITY DARK AREA W% [2] | LATENCY (SEC) W% [2] | LOCOMOTOR ACTIVITY (LIGHT AREA) W% [2] | SHUTTLE ACTIVITY W% [2] | TIME DARK AREA (SEC) W% [2] | other results
1 | Cl.Nc1cc2c3c(cccc3c1Cl)C(=O)N(C1CN3CCC1CC3)C2=O (stereo not shown) [RS-6-chloro-5-amino-2-(1-azabicyclo[2.2.2]oct-3-yl)-2,3-dihydro-1H-benz[de]isoquinoline-1,3-dione hydrochloride] | No unusual effects | – | – | – | – | – | – | – | – | – | – | –
2 | Cl.Nc1cc2c3c(cccc3c1Cl)C(=O)N([C@@H]1CN3CCC1CC3)C2=O [S-6-chloro-5-amino-2-(1-azabicyclo[2.2.2]oct-3-yl)-2,3-dihydro-1H-benz[de]isoquinoline-1,3-dione hydrochloride] | No unusual effects | – | – | – | – | – | – | – | – | – | – | –
3 | Cc1nccn1CC1CCc2c(c3ccccc3n2C)C1=O (stereo not shown) [Ondansetron, reference compound] | – | 78.5 ± 4.7% | 6.7 ± 1.5 s | 1582.0 ± 77.8 | 121.0 ± 12.4 | 499.4 ± 14.8 s | -13.1% | 4.7% | 52.6% | 182.7% | -12.8% | –
4 | Cl.O=C1c2cccc3cccc(c23)C(=O)N1[C@@H]1CN2CCC1CC2 [S-2-(1-azabicyclo[2.2.2]oct-3-yl)-2,3-dihydro-1H-benz[de]isoquinoline-1,3-dione hydrochloride] | No unusual effects | – | – | – | – | – | – | – | – | – | – | –
5 | Cl.Nc1c(Cl)cc2c3c(cccc13)C(=O)N([C@@H]1CN3CCC1CC3)C2=O [(1), S-6-amino-5-chloro-2-(1-azabicyclo[2.2.2]oct-3-yl)-2,3-dihydro-1H-benz[de]isoquinoline-1,3-dione hydrochloride] | – | 37.6 ± 4.9 % | 3.5 ± 0.5 s | 1208.0 ± 86.4 | 42.0 ± 3.9 | 394.9 ± 32.8 s | -54.0% | -28.6% | 41.0% | 37.3% | -26.9% | Crossings/ 5 Min in Light ([3]; alcohol withdrawal): 88.0±9.0; Latency ([3]; alcohol withdrawal): 9.0 ± 1.3 s; Rears/5 Min in Light ([3]; alcohol withdrawal): 86.0±9.0; Time in Dark (%) ([3]; alcohol withdrawal): 60.0±6.4%; Crossings/ 5 Min in Light ([3]; cocaine withdrawal): 135.±15.7; Latency ([3]; cocaine withdrawal): 28.7 ± 2.81 s; Rears/5 Min in Light ([3]; cocaine withdrawal): 101.±2.81; Time in Dark (%) ([3]; cocaine withdrawal): 22.5±2.4%; Crossings/ 5 Min in Light ([3]; diazepam withdrawal): 97.5±10.6; Latency ([3]; diazepam withdrawal): 34.0 ± 3.7 s; Rears/5 Min in Light ([3]; diazepam withdrawal): 89.2±9.1; Time in Dark (%) ([3]; diazepam withdrawal): 27.4±2.9%; Crossings/ 5 Min in Light ([3]; nicotine withdrawal): 94.0±10.1; Latency ([3]; nicotine withdrawal): 20.8 ± 2.4 s; Rears/5 Min in Light ([3]; nicotine withdrawal): 84.5±9.0; Time in Dark (%) ([3]; nicotine withdrawal): 29.0±3.1%
6 | I.Nc1c(Cl)cc2c3c(cccc13)C(=O)N([C@@H]1CN3CCC1CC3)C2=O [(2), S-6-amino-5-chloro-2-(1-azabicyclo[2.2.2]oct-3-yl)-2,3-dihydro-1H-benz[de]isoquinoline-1,3-dione hydrogeniodide] | – | 78.4 ± 1.8 % | 8.1 ± 1.4 s | 1602.4 ± 73.0 | 138.6 ± 9.1 | 498.4 ± 9.3 s | -10.0% | 102.5% | 42.6% | 112.3% | -10.8% | –
